In paper PMC3568510 (Biochemistry, 2013):

Target: CC3396
Format: biochemical, Caulobacter vibrioides (Caulobacter crescentus)

**Q.** How did the Ki turn out when `Nc1nc2c(ncn2[C@@H]2O[C@@H]3CO[P@@](O)(=S)O[C@H]4[C@@H](O)[C@H](n5cnc6c(=O)[nH]c(N)nc65)O[C@@H]4CO[P@@](O)(=S)O[C@H]3[C@H]2O)c(=O)[nH]1` [c-(RPRP)-di-Gps] was run?
**A.** Its Ki is about 480 nM.

**Q.** How did the Ki turn out when `Nc1nc2c(ncn2[C@@H]2O[C@@H]3CO[P@@](O)(=S)O[C@H]4[C@@H](O)[C@H](n5cnc6c(=O)[nH]c(N)nc65)O[C@@H]4CO[P@](O)(=S)O[C@H]3[C@H]2O)c(=O)[nH]1` [c-(RPSP)-di-Gps] was run?
**A.** The Ki was about 820 nM.
